Source: ChEMBL document CHEMBL5442219

Assays:
Conditions in all cases: Compound concentration 10 µM
[1] = target: Sodium-dependent dopamine transporter (Homo sapiens) (UniProt Q01959)
Description: PDSP Primary Binding target: SLC6A3 - Compounds are tested at 10 uM concentration, plate are incubated at room temperature in the dark for 90 minutes. Reaction are stopped by vacuum filtration onto 0.3% polyethyleneimine soaked filter mats using Filtermate harvester. Scintilation cocktail is then melted onto microwave-dried filters on a hot plate and the radio activity is counted in Microbia counter.

[2] = target: Translocator protein (Homo sapiens) (UniProt P30536)
Description: PDSP Primary Binding target: TSPO - Compounds are tested at 10 uM concentration, plate are incubated at room temperature in the dark for 90 minutes. Reaction are stopped by vacuum filtration onto 0.3% polyethyleneimine soaked filter mats using Filtermate harvester. Scintilation cocktail is then melted onto microwave-dried filters on a hot plate and the radio activity is counted in Microbia counter.

[3] = target: T1, 5-hydroxytryptamine receptor 1A (Homo sapiens) (UniProt P08908)
T1 sequence (whole entry): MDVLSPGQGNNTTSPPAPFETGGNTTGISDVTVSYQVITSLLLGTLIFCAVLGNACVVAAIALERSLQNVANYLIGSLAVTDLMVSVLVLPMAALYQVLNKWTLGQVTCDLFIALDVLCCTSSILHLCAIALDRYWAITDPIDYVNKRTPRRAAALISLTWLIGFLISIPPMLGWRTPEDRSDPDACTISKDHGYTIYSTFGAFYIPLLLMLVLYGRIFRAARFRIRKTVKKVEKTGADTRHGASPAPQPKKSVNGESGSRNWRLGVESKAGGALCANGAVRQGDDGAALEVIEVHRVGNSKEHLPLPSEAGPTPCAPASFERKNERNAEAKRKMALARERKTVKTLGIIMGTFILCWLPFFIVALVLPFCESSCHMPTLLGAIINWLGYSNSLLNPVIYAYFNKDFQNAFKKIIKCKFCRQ
Description: PDSP Primary Binding target: HTR1A - Compounds are tested at 10 uM concentration, plate are incubated at room temperature in the dark for 90 minutes. Reaction are stopped by vacuum filtration onto 0.3% polyethyleneimine soaked filter mats using Filtermate harvester. Scintilation cocktail is then melted onto microwave-dried filters on a hot plate and the radio activity is counted in Microbia counter.

[4] = target: Kappa-type opioid receptor (Homo sapiens) (UniProt P41145)
Sequence of Kappa-type opioid receptor (Homo sapiens) (P41145 whole entry): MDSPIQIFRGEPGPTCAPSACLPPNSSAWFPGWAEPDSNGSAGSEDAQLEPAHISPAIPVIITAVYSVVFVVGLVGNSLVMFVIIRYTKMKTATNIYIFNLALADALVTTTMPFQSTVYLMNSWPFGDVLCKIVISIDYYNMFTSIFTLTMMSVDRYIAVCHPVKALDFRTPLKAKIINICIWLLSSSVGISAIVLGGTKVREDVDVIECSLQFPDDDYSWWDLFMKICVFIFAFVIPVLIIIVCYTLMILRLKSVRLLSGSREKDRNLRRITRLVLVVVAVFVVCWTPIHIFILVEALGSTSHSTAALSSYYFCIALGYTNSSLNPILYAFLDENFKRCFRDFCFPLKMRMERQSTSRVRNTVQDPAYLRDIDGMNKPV
Description: PDSP Primary Binding target: OPRK1 - Compounds are tested at 10 uM concentration, plate are incubated at room temperature in the dark for 90 minutes. Reaction are stopped by vacuum filtration onto 0.3% polyethyleneimine soaked filter mats using Filtermate harvester. Scintilation cocktail is then melted onto microwave-dried filters on a hot plate and the radio activity is counted in Microbia counter.

[5] = target: T2, 5-hydroxytryptamine receptor 2C (Homo sapiens) (UniProt P28335)
T2 sequence (whole entry): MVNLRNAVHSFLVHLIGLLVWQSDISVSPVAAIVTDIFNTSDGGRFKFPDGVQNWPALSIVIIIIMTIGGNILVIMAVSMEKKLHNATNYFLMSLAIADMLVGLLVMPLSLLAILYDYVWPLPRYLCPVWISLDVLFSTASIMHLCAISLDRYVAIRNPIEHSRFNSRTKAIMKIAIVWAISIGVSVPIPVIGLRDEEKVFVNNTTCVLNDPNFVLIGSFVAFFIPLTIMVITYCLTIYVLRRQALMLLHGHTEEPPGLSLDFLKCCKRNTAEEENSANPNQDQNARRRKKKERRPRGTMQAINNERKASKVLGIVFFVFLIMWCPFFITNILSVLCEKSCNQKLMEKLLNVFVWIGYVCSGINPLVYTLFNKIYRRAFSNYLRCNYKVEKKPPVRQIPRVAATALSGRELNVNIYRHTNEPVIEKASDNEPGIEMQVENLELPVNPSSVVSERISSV
Description: PDSP Primary Binding target: HTR2C - Compounds are tested at 10 uM concentration, plate are incubated at room temperature in the dark for 90 minutes. Reaction are stopped by vacuum filtration onto 0.3% polyethyleneimine soaked filter mats using Filtermate harvester. Scintilation cocktail is then melted onto microwave-dried filters on a hot plate and the radio activity is counted in Microbia counter.

[6] = target: 5-hydroxytryptamine receptor 2B (Homo sapiens) (UniProt P41595)
Sequence of 5-hydroxytryptamine receptor 2B (Homo sapiens) (P41595 whole entry): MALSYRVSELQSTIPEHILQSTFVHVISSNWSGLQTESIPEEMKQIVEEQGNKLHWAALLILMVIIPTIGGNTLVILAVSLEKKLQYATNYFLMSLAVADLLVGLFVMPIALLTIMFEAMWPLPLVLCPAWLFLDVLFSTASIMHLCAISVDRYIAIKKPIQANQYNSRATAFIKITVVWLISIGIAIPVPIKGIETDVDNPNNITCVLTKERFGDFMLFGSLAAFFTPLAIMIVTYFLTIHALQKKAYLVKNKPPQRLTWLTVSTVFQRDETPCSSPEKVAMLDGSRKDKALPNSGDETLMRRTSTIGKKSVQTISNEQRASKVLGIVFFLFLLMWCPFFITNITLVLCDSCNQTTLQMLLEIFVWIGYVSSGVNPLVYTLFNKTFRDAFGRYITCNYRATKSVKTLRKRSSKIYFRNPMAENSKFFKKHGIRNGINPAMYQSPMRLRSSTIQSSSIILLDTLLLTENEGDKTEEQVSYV
Description: PDSP Primary Binding target: HTR2B - Compounds are tested at 10 uM concentration, plate are incubated at room temperature in the dark for 90 minutes. Reaction are stopped by vacuum filtration onto 0.3% polyethyleneimine soaked filter mats using Filtermate harvester. Scintilation cocktail is then melted onto microwave-dried filters on a hot plate and the radio activity is counted in Microbia counter.

[7] = target: T3, Alpha-1D adrenergic receptor (Homo sapiens) (UniProt P25100)
T3 sequence (whole entry): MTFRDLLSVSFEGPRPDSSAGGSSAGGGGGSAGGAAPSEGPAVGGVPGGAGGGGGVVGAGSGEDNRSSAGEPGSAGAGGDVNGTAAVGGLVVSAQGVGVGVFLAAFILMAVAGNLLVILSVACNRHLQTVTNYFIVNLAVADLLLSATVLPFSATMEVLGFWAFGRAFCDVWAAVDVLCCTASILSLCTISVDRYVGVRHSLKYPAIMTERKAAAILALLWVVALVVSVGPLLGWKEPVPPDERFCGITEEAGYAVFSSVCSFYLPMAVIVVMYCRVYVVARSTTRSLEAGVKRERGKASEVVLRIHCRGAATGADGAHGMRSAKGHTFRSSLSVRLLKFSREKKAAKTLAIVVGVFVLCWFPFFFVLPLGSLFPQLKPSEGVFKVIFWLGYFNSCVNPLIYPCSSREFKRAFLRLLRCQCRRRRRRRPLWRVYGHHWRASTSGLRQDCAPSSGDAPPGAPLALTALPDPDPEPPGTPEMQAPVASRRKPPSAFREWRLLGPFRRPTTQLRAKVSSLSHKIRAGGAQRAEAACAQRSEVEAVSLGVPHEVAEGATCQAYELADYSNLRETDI
Description: PDSP Primary Binding target: ADRA1D - Compounds are tested at 10 uM concentration, plate are incubated at room temperature in the dark for 90 minutes. Reaction are stopped by vacuum filtration onto 0.3% polyethyleneimine soaked filter mats using Filtermate harvester. Scintilation cocktail is then melted onto microwave-dried filters on a hot plate and the radio activity is counted in Microbia counter.

[8] = target: T4, Alpha-2C adrenergic receptor (Homo sapiens) (UniProt P18825)
T4 sequence (whole entry): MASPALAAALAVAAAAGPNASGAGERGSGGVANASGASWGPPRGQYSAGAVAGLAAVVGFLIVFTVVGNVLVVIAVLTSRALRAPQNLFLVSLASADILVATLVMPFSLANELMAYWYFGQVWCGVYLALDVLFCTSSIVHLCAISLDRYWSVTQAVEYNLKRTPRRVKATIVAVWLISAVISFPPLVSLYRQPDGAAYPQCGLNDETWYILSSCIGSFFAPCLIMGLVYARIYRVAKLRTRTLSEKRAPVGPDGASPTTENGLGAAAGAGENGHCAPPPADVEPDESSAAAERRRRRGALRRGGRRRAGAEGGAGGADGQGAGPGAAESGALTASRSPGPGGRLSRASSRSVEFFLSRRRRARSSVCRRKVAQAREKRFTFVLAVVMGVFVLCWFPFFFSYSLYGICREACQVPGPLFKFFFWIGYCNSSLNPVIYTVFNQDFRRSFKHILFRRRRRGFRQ
Description: PDSP Primary Binding target: ADRA2C - Compounds are tested at 10 uM concentration, plate are incubated at room temperature in the dark for 90 minutes. Reaction are stopped by vacuum filtration onto 0.3% polyethyleneimine soaked filter mats using Filtermate harvester. Scintilation cocktail is then melted onto microwave-dried filters on a hot plate and the radio activity is counted in Microbia counter.

[9] = target: T5, Alpha-1B adrenergic receptor (Homo sapiens) (UniProt P35368)
T5 sequence (whole entry): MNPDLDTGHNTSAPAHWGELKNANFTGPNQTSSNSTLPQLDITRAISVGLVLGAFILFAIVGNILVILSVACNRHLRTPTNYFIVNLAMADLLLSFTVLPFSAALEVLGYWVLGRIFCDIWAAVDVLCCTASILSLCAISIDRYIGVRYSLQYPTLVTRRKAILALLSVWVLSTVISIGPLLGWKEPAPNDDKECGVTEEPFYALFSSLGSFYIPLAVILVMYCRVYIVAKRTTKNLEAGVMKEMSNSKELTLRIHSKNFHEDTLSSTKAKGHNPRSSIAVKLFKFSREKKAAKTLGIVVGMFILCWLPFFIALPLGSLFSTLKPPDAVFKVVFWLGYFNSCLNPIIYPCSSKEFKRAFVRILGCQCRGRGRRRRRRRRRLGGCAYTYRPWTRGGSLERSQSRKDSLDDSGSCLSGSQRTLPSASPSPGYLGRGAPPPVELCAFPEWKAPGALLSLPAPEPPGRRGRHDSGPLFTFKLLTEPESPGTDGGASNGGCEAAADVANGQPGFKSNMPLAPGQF
Description: PDSP Primary Binding target: ADRA1B - Compounds are tested at 10 uM concentration, plate are incubated at room temperature in the dark for 90 minutes. Reaction are stopped by vacuum filtration onto 0.3% polyethyleneimine soaked filter mats using Filtermate harvester. Scintilation cocktail is then melted onto microwave-dried filters on a hot plate and the radio activity is counted in Microbia counter.

Measured: inhibition

Sequence of Sodium-dependent dopamine transporter (Homo sapiens) (Q01959 whole entry): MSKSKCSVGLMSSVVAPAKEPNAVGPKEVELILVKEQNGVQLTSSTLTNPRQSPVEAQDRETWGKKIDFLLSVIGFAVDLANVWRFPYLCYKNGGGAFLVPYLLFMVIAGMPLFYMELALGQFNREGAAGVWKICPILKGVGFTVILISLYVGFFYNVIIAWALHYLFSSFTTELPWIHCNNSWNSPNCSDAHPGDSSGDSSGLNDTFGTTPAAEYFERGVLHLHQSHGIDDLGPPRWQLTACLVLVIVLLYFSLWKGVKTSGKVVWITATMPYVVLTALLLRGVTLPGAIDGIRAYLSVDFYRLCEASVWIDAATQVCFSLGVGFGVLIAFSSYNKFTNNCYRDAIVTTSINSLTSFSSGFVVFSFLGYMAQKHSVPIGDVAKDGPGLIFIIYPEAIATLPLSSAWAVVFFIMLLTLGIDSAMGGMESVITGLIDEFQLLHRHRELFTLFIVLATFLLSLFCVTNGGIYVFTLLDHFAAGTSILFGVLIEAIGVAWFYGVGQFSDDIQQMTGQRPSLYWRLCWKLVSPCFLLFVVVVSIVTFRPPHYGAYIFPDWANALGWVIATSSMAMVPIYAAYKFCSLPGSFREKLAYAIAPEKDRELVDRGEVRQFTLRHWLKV
Sequence of Translocator protein (Homo sapiens) (P30536 whole entry): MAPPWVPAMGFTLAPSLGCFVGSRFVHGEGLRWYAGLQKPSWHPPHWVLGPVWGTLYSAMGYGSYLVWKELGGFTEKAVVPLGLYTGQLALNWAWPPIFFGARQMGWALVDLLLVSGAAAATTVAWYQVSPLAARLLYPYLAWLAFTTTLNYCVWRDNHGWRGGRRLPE

Cc1nc(C#Cc2ccnc(Cl)c2)c(C)n1-c1ccc(OC(F)(F)F)cc1
inactive: [1] 8% | [3] 10.3% | [4] 5.17% | [5] 1.86% | [6] 19.6% | [7] 20.7% | [8] -5.37%
active: [2] 64.3%

Cc1cc(C)c(N)c(C#Cc2cccc(F)c2)n1
inactive: [1] 9.26% | [2] 39.6% | [3] -6.48% | [4] 18.4% | [5] 2.41% | [9] -8.91% | [6] 29.9% | [7] 28.9% | [8] 13.5%

NC[C@H](O)c1ccc(O)c(O)c1
inactive: [1] 21.8% | [2] 4.34% | [3] -9.29% | [4] 0.54% | [5] -4.42% | [9] 37.9% | [6] 24.8%
active: [7] 64.8% | [8] 79.4%

Brc1c(NC2=NCCN2)ccc2nccnc12
inactive: [1] -6.87% | [2] -7.41% | [3] -4.03% | [5] 6.61% | [6] 22.7%
active: [9] 55.7% | [7] 59% | [8] 75.6%

O=C1N/C(=N/c2ccccc2F)S/C1=C\c1ccc(C(=O)O)cc1
inactive: [1] 33.1% | [2] 4.31% | [3] 2.18% | [6] -3.68% | [8] 2.98%

CC(C)Oc1ccccc1C(=O)Nc1ccccc1C(=O)Nc1cccc(S(=O)(=O)C(F)(F)F)c1
inactive: [3] 6.76% | [5] 11.3% | [9] -9.86%
active: [2] 66.1%

COc1ccc2[nH]cc(CCNC(C)=O)c2c1
inactive: [1] 29.5% | [3] 5.08% | [9] 1.22% | [6] 49.5% | [7] -5.37%

O=C(O)COc1cccc(CN(Cc2ccc(-n3cccn3)cc2)S(=O)(=O)c2cccnc2)c1
inactive: [2] 11.1% | [3] -0.9% | [4] -1.11% | [5] 29.9% | [9] -5.67% | [6] 5.26% | [8] -2.57%

CC(C)NC(=O)c1ccc(C#Cc2ccncc2)cn1
inactive: [1] 24.2% | [4] -1.6% | [6] 34.4% | [7] 13.3%

FC(F)(F)c1cccc(-c2noc(-c3cc(-c4ccccc4)c(C(F)(F)F)s3)n2)c1
inactive: [1] 17.8% | [2] 5.27% | [3] 2.88% | [4] 46.5% | [5] 1.03% | [6] 10.1% | [7] 1.55% | [8] -0.68%

OC[C@H]1O[C@@H](n2cnc3c(NC4CCCC4)ncnc32)[C@H](O)[C@@H]1O
inactive: [1] 36.9% | [3] -5.74% | [4] -5.12% | [5] -3.43% | [9] 9.65% | [6] 38.5% | [7] -2.06%

CCOC(=O)c1cc(C#N)c(N2CCC(C(=O)NS(=O)(=O)Cc3ccccc3)CC2)nc1C
inactive: [1] 32.9% | [4] 3.74% | [5] 6.09% | [9] -8.97% | [7] 29.5% | [8] -0.84%

CC(C)(C(=O)O)c1ccc(C(O)CCCN2CCC(C(O)(c3ccccc3)c3ccccc3)CC2)cc1 (stereo unspecified)
inactive: [1] 21.9% | [2] -4.11% | [3] -5.94% | [5] -8.36% | [9] 2.41% | [7] -2.43% | [8] -7.6%
active: [6] 67.8%

N#Cc1c(O)nc(SCc2cccc(F)c2F)nc1C1CC1
inactive: [1] 45.1% | [2] 40.4% | [3] -4.01% | [4] 3.53% | [5] -5.1% | [9] -9.08% | [6] 9.1% | [8] 5.91%

CNC[C@H](O)c1ccc(O)c(O)c1
inactive: [1] 32.7% | [2] -0.39% | [3] -3.44% | [9] 2.3% | [6] 1.88% | [7] 12.1%
active: [8] 66.7%

CC1CCN(CC[C@H]2CCCN2S(=O)(=O)c2cccc(O)c2)CC1
inactive: [1] 46.1% | [2] -7.14% | [3] 0.65% | [9] -3.56% | [6] 15.4%
active: [4] 50.4% | [8] 51.5%

O=C1O[C@]2(CC[C@H](C(=O)Nc3ccn(-c4ccccc4F)n3)CC2)c2cnccc21
inactive: [2] 1.2% | [3] 19.7% | [4] -6.46% | [5] 18.3% | [9] 3.66% | [6] 17.5%

CC1(C)SSC(C)(C)[C@@H](NC(=O)[C@@H](N)Cc2ccc(O)cc2)C(=O)NCC(=O)N[C@@H](Cc2ccccc2)C(=O)N[C@H]1C(=O)O
inactive: [1] 27.3% | [3] 3.47% | [4] -4.89% | [9] 8.91% | [6] 24.7% | [8] -6.75%

CCc1nn2c(C)cc(C)nc2c1Cc1ccc(-c2nnc(C3CCNCC3)o2)cc1
inactive: [1] 4.13% | [3] -1.59% | [4] 4.27% | [5] 10.1% | [9] -7.24% | [6] 9.86% | [7] -0.67% | [8] 31.1%

COc1cccc(-c2c(C)n(Cc3c(F)cccc3C(F)(F)F)c(=O)n(C[C@H](NCCCC(=O)O)c3ccccc3)c2=O)c1F
inactive: [2] 15.8% | [3] -2.18% | [5] 1.76% | [6] -6.96% | [7] -7.43% | [8] -3.99%
active: [4] 52.1%

CCCn1c(=O)c2nc(C34CC5CC(CC3C5)C4)[nH]c2n(CCC)c1=O
active: [1] 50%
inactive: [2] 25.5% | [3] -4.72% | [4] 4.62% | [5] -0.12% | [6] 43.5% | [7] -8.33% | [8] 9.01%

C[C@]1(C(=O)N(CCCC(=O)O)Cc2cccc(Cl)c2)CCN1C(=O)c1csc2ccccc12
inactive: [1] 13% | [2] 5.72% | [4] -5.78% | [9] -9.59% | [6] -7.25% | [7] 3.17%

CC1=C2C[C@H]3[C@@H](CC=C4C[C@@H](O)CC[C@@]43C)[C@@H]2CC[C@]12O[C@@H]1C[C@H](C)CN[C@H]1[C@H]2C
inactive: [2] 13.5% | [3] 9.39% | [4] 1.76% | [9] 13.7% | [7] -8.81%
